Measured values as given in patent US20230152329A1, “NOVEL SPLIT-LUCIFERASE ENZYMES AND APPLICATIONS THEREOF” (ARIZONA BOARD OF REGENTS ON BEHALF OF THE UNIVERSITY OF …, priority 2020, published 2023).
Residue numbers refer to the chain shown, from its start. Names may count otherwise. Where two headings read alike, the source gives them in different places.

B1: Y33A: first-generation split-Fluc228 with N-FLuc228 Y33A single mutant (SEQ ID NO: 8) (protein)
chain: MEDAKNIKKGPAPFYPLEDGTAGEQLHKAMKRAALVPGTIAFTDAHIEVNITYAEYFEMSVRLAEAMKRYGLNTNHRIVVCSENSLQFFMPVLGALFIGVAVAPANDIYNERELLNSMNISQPTVVFVSKKGLQKILNVQKKLPIIQKIIIMDSKTDYQGFQSMYTFVTSHLPPGFNEYDFVPESFDRDKTIALIMNSSGSTGLPKGVALPHRTACVRFSHARDPIFG
B2: H46A: first-generation split-Fluc228 with N-FLuc228 H46A single mutant (SEQ ID NO: 7) (protein)
chain: B1 chain with A33Y, H46A

Columns and labels:
[1] = target: T1, protein-protein interaction of Bcl-xL and BAK (Homo sapiens, UniProt Q07817); test: In cellulo split-luciferase assay, inhibition of Bcl-xL/BAK interaction in HEK293T cells; type: cell-based; conditions: 14 hours; for inhibition at 10 µM: HEK-293T, read-out: Percent Inhibition
T1 construct: appending the soluble domain of Bcl-xL to the C-terminal fragment of N-Fluc228 Y33A/H46A; expressed in transfected cells; host or cells: HEK293T, transient transfection (pcDNA 3.1 constructs)
Procedure: N-terminal halves of firefly luciferase (N-Fluc) constructs were generated by fusing FK506-binding protein (FKBP) or Bcl-xL 209 (CΔ24) to the C-terminal of N-Fluc with a 27-residue glycine-serine linker in pcDNA 3.1 via restriction cloning. […] For in vitro assays, mRNA was generated using RiboMaX large scale RNA production system (T7) for 4 h at 30° C. and subsequently purified using G50-microcolumns.
HEK293T cells were maintained in DMEM supplemented with 10% (v/v) FBS, 2.5 μg/mL Amphotericin B, 100 U/mL penicillin, and 100 μg/mL streptomycin, and in a 37° C. water-saturated incubator with 5% CO2. For in cellulo experiments, 3×10^6 cells were seeded in 60 mm dishes for 24 h and then transiently transfected with equal amounts of DNA of each luciferase fragment using PolyJet In Vitro DNA Transfection Reagent. Twelve hours following transfection, 2.5×10^5 cells were transferred to 24-well plates and incubated for an additional 24 h. […] All reported data was done at least in duplicate and repeated on different days. Data from luciferase assays were all normalized by lysate load and with background correction of equivalently treated mock transfected HEK293T cells.
Split-Fluc228 Y33A/H46A constructs were created by appending the soluble domain of Bcl-xL to the C-terminal fragment of N-Fluc228 Y33A/H46A with a 27-residue glycine-serine linker, giving N-Fluc228 Y33A/H46A-GS27-Bcl-xL. The BH3 domain of BAK (20 residues) was appended to the N-terminal fragment of C-Fluc229 through a 30-residue glycine-serine linker, providing BAK-GS30-C-Fluc229.

[2] = target: T2, FKBP-Rapamycin-FRB (Homo sapiens, UniProt P42345+P62942); test: Cell-free (rabbit reticulocyte lysate) rapamycin-inducible split-luciferase assay; type: biochemical; conditions: cell-free RRL; for rapamycin dependent luminescence signal (overall signal): 100 nM rapamycin; for unassisted/background complementation: without added rapamycin (DMSO)
T2 construct: N-terminal fragment of firefly luciferase (N-Fluc); split at 159, 228, 374, 397 or 405; C-terminal fragment of firefly luciferase (C-Fluc); made in house; host or cells: cell-free translation in rabbit reticulocyte lysate (RRL) from in vitro transcribed mRNA
Excerpt: N-terminal halves of firefly luciferase (N-Fluc) constructs were generated by fusing FK506-binding protein (FKBP) or Bcl-xL 209 (CΔ24) to the C-terminal of N-Fluc with a 27-residue glycine-serine linker in pcDNA 3.1 via restriction cloning. C-terminal halves of firefly luciferase (C-Fluc) were created by fusing either FKBP rapamycin-binding (FRB) domain or the BH3-domain of BAK to the N-terminal of C-Fluc with a 30-residue glycine-serine linker in pcDNA 3.1 via restriction cloning. For in vitro assays, mRNA was generated using RiboMaX large scale RNA production system (T7) for 4 h at 30° C. and subsequently purified using G50-microcolumns.
Following translation, 20 μL of lysate was added to 80 μL of L-Glo luciferase assay reagent, incubated at room temperature for 1 min and luminescence was subsequently read using a luminometer with 10 s integration time. All reported data are at least in duplicate and assays have been repeated on different days. Data from the reported luciferase assays were all normalized with background correction of equivalent treatment of RRL without added mRNA.
The N-terminal fragment of each split-luciferase was fused to FKBP at the C-terminal end and the C-terminal fragment of each split-luciferase was fused to FRB at the N-terminal end. Referring to FIG. 2A, the linkers between the enzyme fragments and the FKBP or FRB included 27 to 30 residue glycine-serine linkers. With the five split-Fluc constructs in hand, complementation was tested employing a cell-free protein expression approach using rabbit reticulocyte lysate (RRL), which allows for rapid protein expression and analysis. […] Following incubation, L-Glo reagent containing the substrate, luciferin, was added to each of the split-Fluc pairs and luminescence was subsequently measured.

[3] = 10 μM ABT-737, N-Fluc228 WT-Bcl-xL CΔ24 with BAK-CFluc229, HEK293T
[4] = 10 μM ABT-737, N-Fluc228 Y33A/H46A-Bcl-xL CΔ24 with BAK-CFluc229, HEK293T

T2 sequence (P62942 whole entry, the tested form may be a part): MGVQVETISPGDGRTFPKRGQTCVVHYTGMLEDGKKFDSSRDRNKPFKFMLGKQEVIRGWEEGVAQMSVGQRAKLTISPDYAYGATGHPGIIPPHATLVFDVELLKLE
T2 sequence (P42345 2012-2144 limits assumed): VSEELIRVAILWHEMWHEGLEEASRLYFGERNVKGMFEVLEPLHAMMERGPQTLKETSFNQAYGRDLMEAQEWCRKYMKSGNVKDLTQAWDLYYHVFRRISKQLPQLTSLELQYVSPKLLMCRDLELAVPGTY
T1 sequence (Q07817 1-209 limits assumed): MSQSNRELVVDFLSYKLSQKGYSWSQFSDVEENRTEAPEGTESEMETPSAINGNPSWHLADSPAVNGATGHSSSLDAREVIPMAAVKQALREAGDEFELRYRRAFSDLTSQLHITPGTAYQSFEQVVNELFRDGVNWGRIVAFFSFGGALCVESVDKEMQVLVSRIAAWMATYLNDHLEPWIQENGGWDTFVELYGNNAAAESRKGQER

Molecule | Average RLU [1, 3] | Average RLU [1, 4] | Percent Inhibition [1, 4] | inhibition at 10 µM [1, 3] | inhibition at 10 µM [1, 4] | rapamycin dependent luminescence signal (overall signal) [2] | unassisted/background complementation [2]
CN(C)CC[C@H](CSc1ccccc1)Nc1ccc(S(=O)(=O)NC(=O)c2ccc(N3CCN(Cc4ccccc4-c4ccc(Cl)cc4)CC3)cc2)cc1[N+](=O)[O-] [ABT-737] | 438,145 RLU | 2,258 RLU | 99.8% | 96.1% | > 99% | – | –
B1 | – | – | – | – | – | maintaining strong rapamycin dependent signals | significantly reduced unassisted complementation
B2 | – | – | – | – | – | maintaining strong rapamycin dependent signals | significantly reduced unassisted complementation
